In PubChem BioAssay AID248 (DTP/NCI, 2004) one finds T/C data, which are given here for 15 compounds.

For this assay, the system named is L1210 leukemia ip in BDF1 mice, survival T/C. As to the kind of experiment: NCI In Vivo Anticancer Drug Screen. Data for tumor model L1210 Leukemia (intraperitoneal) in B6D2F1 (BDF1) mice. The settings on record: higher = longer survival. Put shortly: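 Transplanted-tumor mice were given test agent; controls received vehicle only. Survival readings from the two groups were divided (treated over control).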

[1] abbreviates: endpoint: mean survival time, dose: 100.0 mg/kg/injection, schedule: Q01DX001 (ip), vehicle: saline.
[2] abbreviates: endpoint: mean survival time, dose: 200.0 mg/kg/injection, schedule: Q01DX001 (ip), vehicle: saline.
The mark [3] stands for this setting: endpoint: mean survival time, dose: 400.0 mg/kg/injection, schedule: Q01DX001 (ip), vehicle: saline.
Setting [4] is: endpoint: mean survival time, dose: 100.0 mg/kg/injection, schedule: Q04DX003 (ip), vehicle: Klucel (hydroxypropylcellulose) (HPC).
Where [5] appears, read: endpoint: mean survival time, dose: 100.0 mg/kg/injection, schedule: Q01DX001 (ip), vehicle: carboxymethylcellulose (CMC).
[6] abbreviates: endpoint: mean survival time, dose: 200.0 mg/kg/injection, schedule: Q01DX001 (ip), vehicle: carboxymethylcellulose (CMC).
Where [7] appears, read: endpoint: mean survival time, dose: 400.0 mg/kg/injection, schedule: Q01DX001 (ip), vehicle: carboxymethylcellulose (CMC).
The mark [8] stands for this setting: endpoint: mean survival time, dose: 100.0 mg/kg/injection, schedule: Q01DX009 (ip), vehicle: Klucel (hydroxypropylcellulose) (HPC).
Setting [9] is: endpoint: mean survival time, dose: 200.0 mg/kg/injection, schedule: Q01DX009 (ip), vehicle: Klucel (hydroxypropylcellulose) (HPC).
Setting [10] is: endpoint: mean survival time, dose: 400.0 mg/kg/injection, schedule: Q01DX009 (ip), vehicle: Klucel (hydroxypropylcellulose) (HPC).
[11] abbreviates: endpoint: mean survival time, dose: 200.0 mg/kg/injection, schedule: Q04DX003 (ip), vehicle: Klucel (hydroxypropylcellulose) (HPC).
Setting [12] is: endpoint: mean survival time, dose: 400.0 mg/kg/injection, schedule: Q04DX003 (ip), vehicle: Klucel (hydroxypropylcellulose) (HPC).

Several values for one entry are separate records, joined by “and”; a condition that tells them apart may be missing. Equal entries are not always repeated. Inconclusive results and toxic doses are left out.

For `CC(C)(O)CNCCCN`, the T/C (endpoint: mean survival time, dose: 75.0 mg/kg/injection, schedule: Q01DX001 (ip), vehicle: saline) was 96 % of control; the T/C (endpoint: mean survival time, dose: 150.0 mg/kg/injection, schedule: Q01DX001 (ip), vehicle: saline) was 94 % of control; the T/C (endpoint: mean survival time, dose: 300.0 mg/kg/injection, schedule: Q01DX001 (ip), vehicle: saline) was 102 % of control.

`O=C(O)c1cc(Cl)ccc1-c1ccc(Cl)cc1C(=O)Nc1ccc2c(c1)Cc1ccccc1-2`: the T/C is 102 % of control (endpoint: mean survival time, dose: 75.0 mg/kg/injection, schedule: Q01DX001 (ip), vehicle: carboxymethylcellulose (CMC)); 113 % of control (endpoint: mean survival time, dose: 150.0 mg/kg/injection, schedule: Q01DX001 (ip), vehicle: carboxymethylcellulose (CMC)); 104 % of control (endpoint: mean survival time, dose: 300.0 mg/kg/injection, schedule: Q01DX001 (ip), vehicle: carboxymethylcellulose (CMC)).

On to `CC1=NN(c2cccc(Cl)c2)C(=O)C1`, for which the T/C by setting is: (endpoint: mean survival time, dose: 50.0 mg/kg/injection, schedule: Q04DX003 (ip), vehicle: saline with Tween-80) 105 % of control; (endpoint: mean survival time, dose: 100.0 mg/kg/injection, schedule: Q01DX009 (ip), vehicle: saline with Tween-80) 93 % of control; (endpoint: mean survival time, dose: 100.0 mg/kg/injection, schedule: Q04DX003 (ip), vehicle: saline with Tween-80) 94 % of control; (endpoint: mean survival time, dose: 200.0 mg/kg/injection, schedule: Q01DX009 (ip), vehicle: saline with Tween-80) 106 % of control; (endpoint: mean survival time, dose: 200.0 mg/kg/injection, schedule: Q04DX003 (ip), vehicle: saline with Tween-80) 96 % of control and 92 % of control; (endpoint: mean survival time, dose: 400.0 mg/kg/injection, schedule: Q04DX003 (ip), vehicle: saline with Tween-80) 94 % of control.

As to `CCOCCOC(=O)c1ccc(C(=N)OCC)cc1`, the T/C by setting is: under setting [1], 90 % of control; under setting [2], 90 % of control; under setting [3], 86 % of control.

As to `CC(C)(C)C1CCC(NC2=NCCO2)CC1` (stereo unspecified), the T/C by setting is: (endpoint: mean survival time, dose: 25.0 mg/kg/injection, schedule: Q01DX001 (ip), vehicle: Klucel (hydroxypropylcellulose) (HPC)) 103 % of control; (endpoint: mean survival time, dose: 50.0 mg/kg/injection, schedule: Q01DX001 (ip), vehicle: Klucel (hydroxypropylcellulose) (HPC)) 104 % of control; (endpoint: mean survival time, dose: 50.0 mg/kg/injection, schedule: Q04DX003 (ip), vehicle: Klucel (hydroxypropylcellulose) (HPC)) 96 % of control; (endpoint: mean survival time, dose: 100.0 mg/kg/injection, schedule: Q01DX001 (ip), vehicle: Klucel (hydroxypropylcellulose) (HPC)) 93 % of control and 100 % of control; under setting [4], 102 % of control.

For `c1ccc(Cn2cnc3c2nnn2ncnc32)cc1`, the T/C is 106 % of control under setting [5], 102 % of control under setting [6] and 114 % of control under setting [7].

Regarding `Nc1cccc(C(=O)NCc2cccnc2)c1`, the T/C is 110 % of control (endpoint: mean survival time, dose: 100.0 mg/kg/injection, schedule: Q04DX002 (ip), vehicle: saline); 107 % of control (endpoint: mean survival time, dose: 200.0 mg/kg/injection, schedule: Q04DX002 (ip), vehicle: saline); 104 % of control (endpoint: mean survival time, dose: 400.0 mg/kg/injection, schedule: Q04DX002 (ip), vehicle: saline).

As to `CC(C)CN(C)/N=N/c1nc[nH]c1C(N)=O`, the T/C by setting is: (endpoint: mean survival time, dose: 33.0 mg/kg/injection, schedule: Q01DX009 (ip), vehicle: carboxymethylcellulose (CMC)) 114 % of control; (endpoint: mean survival time, dose: 37.0 mg/kg/injection, schedule: Q01DX Z (ip), vehicle: carboxymethylcellulose (CMC)) 170 % of control; (endpoint: mean survival time, dose: 50.0 mg/kg/injection, schedule: Q01DX Z (ip), vehicle: carboxymethylcellulose (CMC)) 156 % of control; (endpoint: mean survival time, dose: 75.0 mg/kg/injection, schedule: Q01DX Z (ip), vehicle: carboxymethylcellulose (CMC)) 167 % of control; (endpoint: mean survival time, dose: 80.0 mg/kg/injection, schedule: Q01DX015 (ip), vehicle: carboxymethylcellulose (CMC)) 109 % of control; under setting [5], 116 % of control. Also, the T/C (endpoint: mean survival time, dose: 120.0 mg/kg/injection, schedule: Q01DX009 (ip), vehicle: carboxymethylcellulose (CMC)) is 86 % of control; the T/C (endpoint: mean survival time, dose: 134.0 mg/kg/injection, schedule: Q01DX001 (ip), vehicle: carboxymethylcellulose (CMC)) was 106 % of control; the T/C (endpoint: mean survival time, dose: 134.0 mg/kg/injection, schedule: Q01DX015 (ip), vehicle: carboxymethylcellulose (CMC)) is 109 % of control; the T/C (endpoint: mean survival time, dose: 178.0 mg/kg/injection, schedule: Q01DX001 (ip), vehicle: carboxymethylcellulose (CMC)) is 106 % of control; the T/C under setting [6] was 122 % of control; the T/C (endpoint: mean survival time, dose: 267.0 mg/kg/injection, schedule: Q01DX001 (ip), vehicle: carboxymethylcellulose (CMC)) was 110 % of control. In addition, the T/C is 151 % of control under setting [7]; 122 % of control (endpoint: median survival time, dose: 12.5 mg/kg/injection, schedule: Q01DX009 (ip), vehicle: steriod suspending solution); 111 % of control (endpoint: median survival time, dose: 25.0 mg/kg/injection, schedule: Q01DX009 (ip), vehicle: steriod suspending solution); 175 % of control (endpoint: median survival time, dose: 50.0 mg/kg/injection, schedule: Q01DX011 (ip), vehicle: steriod suspending solution); 155 % of control (endpoint: median survival time, dose: 100.0 mg/kg/injection, schedule: Q01DX009 (ip), vehicle: steriod suspending solution); 168 % of control (endpoint: median survival time, dose: 100.0 mg/kg/injection, schedule: Q01DX011 (ip), vehicle: steriod suspending solution).

Turning to `O=C(O)c1cscc1Cc1cccs1`, the T/C was 96 % of control (endpoint: mean survival time, dose: 100.0 mg/kg/injection, schedule: Q01DX001 (ip), vehicle: saline with Tween-80); 96 % of control (endpoint: mean survival time, dose: 200.0 mg/kg/injection, schedule: Q01DX001 (ip), vehicle: saline with Tween-80); 103 % of control (endpoint: mean survival time, dose: 400.0 mg/kg/injection, schedule: Q01DX001 (ip), vehicle: saline with Tween-80).

Consider `CCCCCCCCCCCCCCCCS(=O)(=O)N/N=C/c1cc(Cl)ccc1O`, for which the T/C is 94 % of control under setting [5], 92 % of control under setting [6] and 92 % of control under setting [7].

As to `Nc1ccc(N)cc1` (tested in a mixture with another compound), the T/C runs as follows: (endpoint: mean survival time, dose: 50.0 mg/kg/injection, schedule: Q01DX009 (ip), vehicle: DMSO) 103 % of control; (endpoint: mean survival time, dose: 100.0 mg/kg/injection, schedule: Q01DX009 (ip), vehicle: DMSO) 91 % of control; (endpoint: mean survival time, dose: 100.0 mg/kg/injection, schedule: Q04DX003 (ip), vehicle: DMSO) 91 % of control; (endpoint: mean survival time, dose: 200.0 mg/kg/injection, schedule: Q04DX003 (ip), vehicle: DMSO) 94 % of control.

For the compound `Cc1ccc(Cl)cc1NS(=O)(=O)c1cc(Cl)c(Cl)cc1Cl`, the T/C reads like this: under setting [8], 93 % of control; under setting [9], 89 % of control; under setting [10], 94 % of control.

As for `CCN(CC)CCOC(=O)c1ccccc1N(c1ccccc1)c1ccccc1`, the T/C was 98 % of control (endpoint: mean survival time, dose: 25.0 mg/kg/injection, schedule: Q01DX009 (ip), vehicle: saline); 98 % of control (endpoint: mean survival time, dose: 50.0 mg/kg/injection, schedule: Q01DX009 (ip), vehicle: saline); 91 % of control (endpoint: mean survival time, dose: 62.5 mg/kg/injection, schedule: Q01DX015 (ip), vehicle: saline); 92 % of control under setting [1]; 98 % of control (endpoint: mean survival time, dose: 100.0 mg/kg/injection, schedule: Q01DX009 (ip), vehicle: saline); 96 % of control (endpoint: mean survival time, dose: 100.0 mg/kg/injection, schedule: Q04DX003 (ip), vehicle: acetone). Also, the T/C was 95 % of control (endpoint: mean survival time, dose: 125.0 mg/kg/injection, schedule: Q01DX015 (ip), vehicle: saline); 96 % of control (endpoint: mean survival time, dose: 150.0 mg/kg/injection, schedule: Q01DX009 (ip), vehicle: acetone); 103 % of control under setting [2]; 98 % of control under setting [3].

In the case of `O=c1[nH]cc(NCc2ccco2)c(=O)[nH]1`, the T/C is, setting by setting: under setting [4], 101 % of control; under setting [11], 88 % of control; under setting [12], 93 % of control.

With `Clc1cc(Cl)c2nc(Cl)c3ccccc3c2c1`, the T/C under setting [8] is 100 % of control; the T/C under setting [4] is 95 % of control; the T/C under setting [9] is 92 % of control; the T/C under setting [11] is 90 % of control; the T/C under setting [10] is 100 % of control; the T/C under setting [12] is 93 % of control.
